Tested on: patients with mild to moderate AD (MMSE 16-26)
Test: Phase 2 trial: Neuropsychiatric Inventory (NPI-12) scores, cluster scores and emergence of new NPS
Format: in vivo, human
Description: Several scales have been used for the assessment of BPSD. These include scales that have been specifically designed for studying NPS in patients with dementia, such as the “Behavioral Pathology in AD Rating Scale” (BEHAVE-AD, Reisberg et al. BEHAVE-AD: A clinical rating scale for the assessment of pharmacologically remediable behavioral symptomatology in Alzheimer's disease. In: Altman H J, editor. Alzheimer's Disease: Problems, prospects, and perspectives. Plenum; New York: 1987. pp. 1-161996), CERAD behavior rating scale for dementia (BRSD, Tariot 1996, International Psychogeriatrics, 8(Suppl. 3):317-320), and the Neuropsychiatric Inventory (NPI, Cummings et al. 1994, Neurology. 1994; 44:2308-14). The NPI which was designed to evaluate the broad range of behavioral symptoms that may develop in dementia patients, is a well validated instrument and has been widely used in BPSD studies and in AD treatment trials. The original version assessed 10 symptoms or items, including: delusions, hallucinations, agitation/aggression, depression/dysphoria, anxiety, apathy, irritability, euphoria/elation, disinhibition, and aberrant motor behavior; and was subsequently updated to include appetite changes and nighttime behaviors (sleep disturbances). The NPI is administered by a trained individual as a structured interview with the patient's caregiver. Each item is assessed by a scripted screening question, and the frequency and severity of each item is scored from 0-4 (0: absent, 1: occasional or less than once per week to 4 occurs at least daily), and from 1-3 (1: mild or produces little distress in patient; 2: moderate or more disturbing to patient but can be re-directed by caregiver; and 3: severe or very disturbing to patient and difficult to re-direct). The total item-score is then derived from frequency multiplied by the severity score; and the total NPI score (NPI-T) is derived from addition of all item scores, with the range of scores being from 0 (no NPS at all) to 144 (all 12 NPS are present at maximum severity at daily basis). In the majority of the drug trials in Mild/Moderate AD, the mean total NPI scores are ˜10-12 at baseline. The Phase 2 study described in the example below utilized the NPI-12 item assessment; and the mean total NPI scores were between 8 and 10 at baseline. This baseline severity is slightly lower than the range reported in many Mild to Moderate AD trials reported in the literature.
In a Phase 2, parallel arm, dose-ranging, placebo-controlled, double-blind, multicenter trial in patients with mild to moderate AD (MMSE 16-26), scyllo-inositol was administered to study subjects in immediate release tablets twice daily at the dosage level set for each study arm or identical-appearing placebo tablets were administered in the control arm. […] The study included neuropsychological assessments using the NPI-12 item scale, as well as assessments of scyllo-Inositol (SI) and myo-inositol (MI) brain levels using magnetic resonance spectroscopy (MRS).
The present study was a dose ranging study in Mild and Moderate AD patients (defined as having MMSE scores of 16-26 inclusive), and included 3 doses of scyllo-insoitol given bid (250 mg, 1000 mg, and 2000 mg) and placebo. The study was of 78 weeks duration and enrolled a total of 353 patients, and 351 received study drug (safety population). Due to safety findings in the 2 highest dose groups, these 2 groups were discontinued and the study's final efficacy analysis was based only on the 250 mg and placebo groups. […] In the overall study population, total randomized to all 4 dose groups=353, total that received study drug=351 (safety population, at any dose). For placebo and 250 mg group, the overall m-ITT (modified intent-to-treat)=166, overall PPS (per protocol set)=96.
A potentially disease-modifying drug, by altering regional neuronal dysfunction, may prevent or delay the emergence of abnormal behaviors as quantified by the NPI outcomes. […]

[1] = 250 mg bid vs placebo, Mild AD, m-ITT

O[C@H]1[C@H](O)[C@@H](O)[C@H](O)[C@@H](O)[C@@H]1O [scyllo-inositol]
Score Difference (Summary Statistics), Affective Syndrome (6 symptoms) (250 mg bid vs placebo, Mild AD MMSE 22-26, m-ITT): +3.47 | Score Difference (MMRM), Affective Syndrome (Depression, Anxiety, Agitation, Nighttime Behavior, Appetite Changes, Apathy) (250 mg bid vs placebo, Mild AD MMSE 22-26, m-ITT, factor-analysis cluster): +1.36 | Score Difference (MMRM), Apathy [1]: −0.35 | Score Difference (MMRM), Behavioral cluster: Aberrant Motor/Nighttime Behaviors [1]: +0.05 | Score Difference (MMRM), Frontal cluster: Elation and Disinhibition [1]: +0.33 | Score Difference (MMRM), Psychotic cluster: Delusions and Hallucinations [1]: −0.29 | Score Difference (MMRM), Affective: Depression and Anxiety (250 mg bid vs placebo, Moderate AD MMSE 16-21, m-ITT): +0.94 | improvement of Affective Syndrome score change compared to placebo group, by MMRM (250 mg bid, Mild AD MMSE 22-26): 35% | improvement of Affective Syndrome score change compared to placebo group, by summary statistics (250 mg bid, Mild AD MMSE 22-26): 91% | NPI total score benefit compared to placebo (250 mg bid, Mild MMSE 22-26, m-ITT, 78 weeks): 44% | NPI total score numerical difference from placebo (250 mg bid, Mild MMSE 22-26, m-ITT, 78 weeks, not statistically significant): ~2 points | proportion of patients who developed at least 2 new symptoms, lower versus placebo (250 mg bid, Mild m-ITT MMSE 22-26, over 78 weeks, p<0.05): 21.5% | NPI total score improvement versus placebo (250 mg bid, Moderate MMSE 16-21, PP analysis): ~50% | NPI total score, better than placebo (250 mg bid, Moderate MMSE 16-21, PP analysis, 78 weeks, not statistically significant): ~4 points | NPI total score versus placebo (250 mg bid, Moderate MMSE 16-21, m-ITT analysis): did not show significant differences from placebo | proportion of patients who developed at least 2 new symptoms, lower versus placebo (250 mg bid, Moderate m-ITT MMSE 16-21, over 78 weeks, p=0.33): 12.4% | proportion of patients who developed at least 4 new symptoms, lower versus placebo (250 mg bid, Moderate m-ITT MMSE 16-21, over 78 weeks, p=0.34): 12.1% | increase in prevalence of irritability, baseline to end of study (250 mg group, Mild, week 78): 10% | prevalence of apathy, anxiety, agitation, appetite and sleep change, baseline to end of study (250 mg group, Mild, week 78): remained stable | emergence of depression, anxiety, appetite change, agitation and apathy at any time during the study (250 mg, Mild MMSE 22-26): decreases the emergence | emergence of NPS at any time during the study (250 mg, Moderate MMSE 16-21): decreased emergence of most NPS | emergence of irritability (250 mg, Moderate MMSE 16-21): more prevalent with treatment | Score Difference (MMRM), Affective: Depression and Anxiety (Moderate AD, PPS): +1.07 | Score Difference (MMRM), Apathy (Moderate AD, PPS): +0.14 | Score Difference (MMRM), Behavioral: Aberrant Motor, Nighttime Behaviors (Moderate AD, PPS): +1.42 | Score Difference (MMRM), Frontal: Elation and Disinhibition (Moderate AD, PPS): +0.68 | Score Difference (MMRM), Psychotic: Delusions and Hallucinations (Moderate AD, PPS): +1.32 | Score Difference (summary statistics), Affective: Depression and Anxiety (Moderate AD, PPS): +0.06 | Score Difference (summary statistics), Apathy (Moderate AD, PPS): +0.68 | Score Difference (summary statistics), Behavioral: Aberrant Motor, Nighttime Behaviors (Moderate AD, PPS): +1.96 | Score Difference (summary statistics), Frontal: Elation and Disinhibition (Moderate AD, PPS): +0.53 | Score Difference (summary statistics), Psychotic: Delusions and Hallucinations (Moderate AD, PPS): +0.71 | Score Difference (MMRM), Apathy (Moderate AD, m-ITT): +0.97 | Score Difference (MMRM), Behavioral: Aberrant Motor, Nighttime Behaviors (Moderate AD, m-ITT): +0.11 | Score Difference (MMRM), Frontal: Elation and Disinhibition (Moderate AD, m-ITT): +0.56 | Score Difference (MMRM), Psychotic: Delusions and Hallucinations (Moderate AD, m-ITT): −0.52 | Score Difference (summary statistics), Affective: Depression and Anxiety (Moderate AD, m-ITT): −0.15 | Score Difference (summary statistics), Apathy (Moderate AD, m-ITT): +1.09 | Score Difference (summary statistics), Behavioral: Aberrant Motor, Nighttime Behaviors (Moderate AD, m-ITT): +1.76 | Score Difference (summary statistics), Frontal: Elation and Disinhibition (Moderate AD, m-ITT): +0.48 | Score Difference (summary statistics), Psychotic: Delusions and Hallucinations (Moderate AD, m-ITT): +0.34 | emergence of depression and/or anxiety by plasma AUC quartile (plasma AUC corresponding to the 250 mg bid dose (second quartile)): significant decrease

Source: patent US20140243422A1, “METHODS OF TREATING BEHAVIORAL AND PSYCHIATRIC DISORDERS” (ELAN PHARMACEUTICALS, INC., priority 2011, published 2014)
